Measured values: patent US7622480B2, “Azaindolylpiperidine derivatives as antihistaminic and antiallergic agents” (Laboratorios Almirall S.A., priority 2002, dated 2009)

How the values were obtained:
histamine H1 receptor = molecular target: T1, histamine H1 receptor (Cavia porcellus, UniProt P31389); experiment: Histamine-H1 receptor binding assay; conditions: guinea pig cerebellum membranes, 0.7 nM [3H]-mepyramine, 30 min at 30° C.
T1 construct: performed in guinea pig cerebellum membranes as described previously; from tissue; host or cells: guinea pig cerebellum membranes
Protocol: (1) In vitro histamine H1 receptor binding assay, to measure the affinity of the compounds. […] Briefly, the membrane suspensions (160 μg/ml) were incubated at 30° C. with 0.7 nM [^3H]-mepyramine and different concentrations of the test compounds in a final volume of 250 μl. Binding reactions were terminated by filtration after 30 min of incubation and the bound radioactivity was determined. The non-specific binding was measured in the presence of 10 μM of promethazine. The affinity of each test compound to the receptor was determined by using at least six different concentrations run in duplicate. IC50 values were obtained by non-linear regression by use of SAS on a DEC AXP computer.

[1] = system: Histamine-induced skin vascular permeability in rats; experiment: Histamine-induced skin vascular permeability in rats; assay type: in vivo; conditions: Rattus norvegicus, 4 h; Male Wistar rats, oral, dose of 3 mg/Kg, four hours after administration, compared with vehicle treated group
Protocol: Either one, four, eight or 24 hours later the rats were lightly anaesthetized with ether and a cutaneous reaction was induced by two intradermal injections of 50 μl of histamine (100 μg/ml) onto the back, followed by a intravenous injection of 3 ml/kg of Evan's Blue (5 mg/ml), both dissolved in saline. Sixty minutes later, the rats were killed by cervical dislocation and the back skin dissected free. The diameter (in millimetres) of the papule was measured in two directions and the area was calculated.

T1 sequence (P31389 whole entry): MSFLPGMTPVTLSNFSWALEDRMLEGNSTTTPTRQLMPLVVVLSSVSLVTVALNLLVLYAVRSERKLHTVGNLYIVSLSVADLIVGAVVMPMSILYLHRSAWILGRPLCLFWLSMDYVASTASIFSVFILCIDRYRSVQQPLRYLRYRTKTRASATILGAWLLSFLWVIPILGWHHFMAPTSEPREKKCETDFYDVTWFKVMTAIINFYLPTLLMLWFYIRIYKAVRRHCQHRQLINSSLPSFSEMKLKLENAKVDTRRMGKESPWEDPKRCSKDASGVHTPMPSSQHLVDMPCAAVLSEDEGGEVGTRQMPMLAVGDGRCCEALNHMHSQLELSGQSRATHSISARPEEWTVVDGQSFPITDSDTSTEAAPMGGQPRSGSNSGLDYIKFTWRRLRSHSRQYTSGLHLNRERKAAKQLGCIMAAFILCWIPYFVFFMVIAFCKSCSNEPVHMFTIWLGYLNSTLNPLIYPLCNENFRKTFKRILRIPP

| Compound | IC50 (histamine H1 receptor) [nM] | inhibition in vivo at 3 mg/kg [1] [%] |
| --- | --- | --- |
| CCOCCn1cc(C2CCN(Cc3cccc(C(=O)O)c3)CC2)c2cccnc21 [Example 4, 3-{4-[1-(2-ethoxyethyl)-1H-pyrrolo[2,3-b]pyridin-3-yl]piperidin-1-ylmethyl}benzoic acid] | 403 | > 50 |
| O=C(O)c1cccc(CN2CCC(c3cn(Cc4ccc(Cl)s4)c4ncccc34)CC2)c1 [Example 18, 3-{4-[1-(5-chlorothiophen-2-ylmethyl)-1H-pyrrolo[2,3-b]pyridin-3-yl]-piperidin-1-ylmethyl}-benzoic acid] | 315 | – |
| CCCCn1cc(C2CCN(CCOc3cc(Cl)ccc3C(=O)O)CC2)c2ccncc21 [Example 84, 2-{2-[4-(1-butyl-1H-pyrrolo[2,3-c]pyridin-3-yl)piperidin-1-yl]-ethoxy}-4-chlorobenzoic acid] | 74 | – |
| CCCCn1cc(C2CCN(Cc3ccc(F)c(C(=O)O)c3)CC2)c2cccnc21 [Example 64, 5-[4-(1-butyl-1H-pyrrolo[2,3-b]pyridin-3-yl)-piperidin-1-ylmethyl]-2-fluorobenzoic acid] | 380 | – |
| CCOCCn1cc(C2CCN(Cc3ccc(OC)c(C(=O)O)c3)CC2)c2cccnc21 [Example 5] | 695 | > 50 |
| O=C(O)c1ccc(Cl)cc1OCCN1CCC(c2cn(Cc3ccc(Cl)s3)c3cnccc23)CC1 [Example 92, 4-chloro-2-(2-{4-[1-(5-chlorothiophen-2-ylmethyl)-1H-pyrrolo[2,3-c]pyridin-3-yl]-piperidin-1-yl}-ethoxy)-benzoic acid] | 105 | – |
| CCOCCn1cc(C2CCN(CCOc3cc(Cl)ccc3C(=O)O)CC2)c2ccncc21 [Example 73, 4-chloro-2-(2-{4-[1-(2-ethoxyethyl)-1H-pyrrolo[2,3-c]pyridin-3-yl]-piperidin-1-yl}-ethoxy)-benzoic acid] | 111 | – |
| COc1ccc(C(=O)O)c(OCCN2CCC(c3cn(Cc4ccoc4)c4cnccc34)CC2)c1 [Example 76, 2-{2-[4-(1-furan-3-ylmethyl-1H-pyrrolo[2,3-c]pyridin-3-yl)-piperidin-1-yl]-ethoxy}-4-methoxybenzoic acid] | 675 | – |
| COCCn1cc(C2CCN(Cc3cccc(C(=O)O)c3)CC2)c2cccnc21 [Example 1, 3-{4-[1-(2-methoxyethyl)-1H-pyrrolo[2,3-b]pyridin-3-yl]piperidin-1-ylmethyl}benzoic acid] | 240 | > 50 |
| O=C(O)c1cccc(CN2CCC(c3cn(Cc4ccoc4)c4ncccc34)CC2)c1 [Example 2, 3-[4-(1-furan-3-ylmethyl-1H-pyrrolo[2,3-b]pyridin-3-yl)piperidin-1-ylmethyl]benzoic acid] | 560 | > 50 |
| O=C(O)c1cc(CN2CCC(c3cn(Cc4ccoc4)c4ncccc34)CC2)ccc1F [Example 45, 2-fluoro-5-[4-(1-furan-3-ylmethyl-1H-pyrrolo[2,3-b]pyridin-3-yl)-piperidin-1-ylmethyl]-benzoic acid] | 255 | – |
| CCCCn1cc(C2CCN(Cc3cccc(C(=O)O)c3)CC2)c2cccnc21 [Example 26, 3-[4-(1-butyl-1H-pyrrolo[2,3-b]pyridin-3-yl)piperidin-1-ylmethyl]-benzoic acid] | 275 | – |
| COc1ccc(CN2CCC(c3cn(Cc4ccc(Cl)s4)c4ncccc34)CC2)cc1C(=O)O [Example 19, 5-{4-[1-(5-chlorothiophen-2-ylmethyl)-1H-pyrrolo[2,3-b]pyridin-3-yl]-piperidin-1-ylmethyl}2-methoxybenzoic acid] | 500 | > 50 |
| COCCn1cc(C2CCN(Cc3c(OC)ccc(C(=O)O)c3OC)CC2)c2cccnc21 [Example 22, 2,4-dimethoxy-3-{4-[1-(2-methoxyethyl)-1H-pyrrolo[2,3-b]pyridin-3-yl]-piperidin-1-ylmethyl}-benzoic acid] | 235 | – |
| COc1ccc(CN2CCC(c3cn(Cc4ccco4)c4cnccc34)CC2)cc1C(=O)O [Example 96, 5-[4-(1-furan-2-ylmethyl-1H-pyrrolo[2,3-c]pyridin-3-yl)-piperidin-1-ylmethyl]-2-methoxybenzoic acid] | 805 | – |
| O=C(O)c1cccc(CN2CCC(c3cn(CC4CC4)c4ncccc34)CC2)c1 [Example 28, 3-[4-(1-cyclopropylmethyl-1H-pyrrolo[2,3-b]pyridin-3-yl)-piperidin-1-ylmethyl]-benzoic acid] | 520 | – |

More lines, main results first:

| IC50 (histamine H1 receptor) [nM] | Compound | inhibition in vivo at 3 mg/kg [1] [%] |
| --- | --- | --- |
| 155 | CCOCCn1cc(C2CCN(CCOc3c(OC)cccc3C(=O)O)CC2)c2cccnc21 [Example 37, 2-(2-{4-[1-(2-ethoxyethyl)-1H-pyrrolo[2,3-b]pyridin-3-yl]-piperidin-1-yl}-ethoxy)-3-methoxybenzoic acid] | – |
| 225 | O=C(O)c1ccccc1OCCN1CCC(c2cn(Cc3ccoc3)c3ncccc23)CC1 [Example 3, 2-{2-[4-(1-furan-3-ylmethyl-1H-pyrrolo[2,3-b]pyridin-3-yl)piperidine-1-yl]ethoxy}benzoic acid] | > 50 |
| 190 | CCOCCn1cc(C2CCN(CCOc3ccccc3C(=O)O)CC2)c2cccnc21 [Example 6] | > 50 |
| 265 | O=C(O)c1ccccc1OCCN1CCC(c2cn(Cc3ccc(Cl)s3)c3ncccc23)CC1 [Example 17, 2-(2-{4-[1-(5-chlorothiophen-2-ylmethyl)-1H-pyrrolo[2,3-b]pyridin-3-yl]-piperidin-1-yl}-ethoxy)-benzoic acid] | – |
| 505 | O=C(O)c1ccccc1OCCN1CCC(c2cn(Cc3cccs3)c3ncccc23)CC1 [Example 11, 2-{2-[4-(1-thiophen-2-ylmethyl-1H-pyrrolo[2,3-b]pyridin-3-yl)-piperidin-1-yl]-ethoxy}benzoic acid] | – |
| 695 | COc1cccc(C(=O)O)c1OCCN1CCC(c2cn(Cc3ccc(Cl)s3)c3ncccc23)CC1 [Example 54, 2-(2-{4-[1-(5-chlorothiophen-2-ylmethyl)-1H-pyrrolo[2,3-b]pyridin-3-yl]-piperidin-1-yl}-ethoxy)-3-methoxybenzoic acid] | – |
| 160 | CCOCCn1cc(C2CCN(CCOc3cc(OC)ccc3C(=O)O)CC2)c2cccnc21 [Example 36, 2-(2-{4-[1-(2-ethoxyethyl)-1H-pyrrolo[2,3-b]pyridin-3-yl]-piperidin-1-yl}-ethoxy)-4-methoxybenzoic acid] | > 50 |
| 110 | CCCCn1cc(C2CCN(CCOc3cc(Cl)ccc3C(=O)O)CC2)c2cccnc21 [Example 63, 2-{2-[4-(1-butyl-1H-pyrrolo[2,3-b]pyridin-3-yl)-piperidin-1-yl]-ethoxy}-4-chlorobenzoic acid] | – |
| 48 | COc1ccc(C(=O)O)c(OCCN2CCC(c3cn(Cc4ccco4)c4ncccc34)CC2)c1 [Example 50, 2-{2-[4-(1-furan-2-ylmethyl-1H-pyrrolo[2,3-b]pyridin-3-yl)-piperidin-1-yl]-ethoxy}-4-methoxybenzoic acid] | – |
| 100 | CCCCn1cc(C2CCN(CCOc3cc(OC)ccc3C(=O)O)CC2)c2cccnc21 [Example 61, 2-{2-[4-(1-butyl-1H-pyrrolo[2,3-b]pyridin-3-yl)piperidin-1-yl]-ethoxy}-4-methoxybenzoic acid] | > 50 |
| 205 | COc1ccc(CN2CCC(c3cn(Cc4ccoc4)c4ncccc34)CC2)cc1C(=O)O [Example 7, 5-[4-(1-furan-3-ylmethyl-1H-pyrrolo[2,3-b]pyridin-3-yl)-piperidin-1-ylmethyl]-2-methoxybenzoic acid] | > 50 |
| 405 | O=C(O)c1ccccc1OCCN1CCC(c2cn(Cc3ccco3)c3ncccc23)CC1 [Example 8, 2-{2-[4-(1-furan-2-ylmethyl-1H-pyrrolo[2,3-b]pyridin-3-yl)-piperidin-1-yl]-ethoxy}-benzoic acid] | > 50 |
| 120 | COc1ccc(C(=O)O)c(OCCN2CCC(c3cn(Cc4ccoc4)c4ncccc34)CC2)c1 [Example 43, 2-{2-[4-(1-furan-3-ylmethyl-1H-pyrrolo[2,3-b]pyridin-3-yl)piperidin-1-yl]-ethoxy}-4-methoxybenzoic acid] | – |
| 220 | CCCCn1cc(C2CCN(CCOc3ccccc3C(=O)O)CC2)c2ccncc21 [Example 81, 2-{2-[4-(1-butyl-1H-pyrrolo[2,3-c]pyridin-3-yl)-piperidin-1-yl]-ethoxy}-benzoic acid] | – |
| 150 | O=C(O)c1cccc(CN2CCC(c3cn(Cc4ccco4)c4ncccc34)CC2)c1 [Example 9, 3-[4-(1-furan-2-ylmethyl-1H-pyrrolo[2,3-b]pyridin-3-yl)piperidin-1-ylmethyl]-benzoic acid] | > 50 |
| 510 | O=C(O)c1ccccc1OCCN1CCC(c2cn(Cc3ccsc3)c3ncccc23)CC1 [Example 14, 2-{2-[4-(1-thiophen-3-ylmethyl-1H-pyrrolo[2,3-b]pyridin-3-yl)-piperidin-1-yl]-ethoxy}-benzoic acid] | – |
| 275 | COCCn1cc(C2CCN(CCOc3cccc(OC)c3C(=O)O)CC2)c2cccnc21 [Example 23, 2-methoxy-6-(2-{4-[1-(2-methoxyethyl)-1H-pyrrolo[2,3-b]pyridin-3-yl]-piperidin-1-yl}-ethoxy)benzoic acid] | – |
